# Reference: patent US20080014133A1, “Extraction Of Radionuclides By Crown Ether-Containing Extractants” (priority 2004, published 2008)
# Columns and labels:
# [1] = Influence of nitric acid concentration on extraction of sodium; assay type: physicochemical; conditions: crown ether about 0.1 mol/l in Fluoroheptanol n3
# Procedure: Selected for study were extractants containing crown ethers: DB18C6, DTBDB18C6, DCH18C6 or DB21C7 in a concentration of about 0.1 mol/l in Fluoroheptanol n3. Used as experimental solutions were aqueous solutions of sodium nitrate whose concentration was determined using radiometric techniques on previously added aliquot of a sodium-22 isotope.
# [2] = Distribution ratio of strontium extracted in organic solutions of crown ethers (Table 1); assay type: physicochemical; conditions: Sr and Cs 1 g/l, nitric acid about 3.0 mol/l
# Procedure: (§1) Study was carried out for determining the distribution ratios of radionuclides, for example, strontium or cesium to be extracted by the extractants according to the invention containing various crown ethers as a complexing agent: bis(tert-butylbenzo)-18-crown-6 (subsequently referred to as DTBDB18C6), di-isooctylbenzo-18-crown-6 (subsequently referred to as DIODB18C6), bis(tert-butylcyclohexane-18-crown-6 (subsequently referred to as DTBDCH18C6), di-isooxyldicyclohexane-18-crown-6 (subsequently referred to as DIODCH18C6), bicyclohexane-18-crown-6 (subsequently referred to as DCH18C6) or dibenzo-21-crown-7 (subsequently referred to as DB21C7), in an organic solvent according to the invention: polyfluorinated telomeric alcohol 1,1,7-trihydrododecafluoroheptanol-1 (subsequently referred to as fluoroheptanol n3).
# (§2) For comparison, the distribution ratios of strontium and cesium were determined using extractants containing similar crown ethers in another organic solvent (decane).
# (§3) Taken for the tests were experimental aqueous nitrate solutions containing strontium and cesium in a concentration of 1 g/l with a content of nitric acid of about 3.0 mol/l.
# [3] = Influence of sodium concentration on extraction of cesium; assay type: physicochemical; conditions: Cs 1 g/l, nitric acid about 3.0 mol/l
# Procedure: Extraction of cesium was made involving starting solutions containing 1 g/l of cesium in nitric acid having concentration about of 3.0 mol/l at different concentration of sodium. The solutions were treated with the extractants according to the invention containing crown ether DTBDB18C6 in a concentration about of 0.1 mol/l in fluoroheptanol n3.
# [4] = Interaction of extractants with sodium (organic/aqueous phase concentration); assay type: physicochemical
# Procedure: The characteristics of the extractants according to the invention in the process of extraction of sodium from acidic aqueous solutions of high-level waste were determined. For this purpose, the concentration of sodium in the organic and aqueous phases containing extractants based on DTBDB18C6 or DCH18C6 or DB21C7 in a concentration about of 0.05 mol/l in fluoroheptanol n3 were analyzed.
# [5] = Influence of nitric acid concentration on cesium extraction from solution No.1; assay type: physicochemical; conditions: solution No.1
# Source text: The dependence of extraction of cesium by organic solutions DTBDB18C6 in fluoropentanol n3 and DB21C7 in Fluoroheptanol n3 at a concentration of nitric acid in a starting solution was studied. Solution No.1 whose composition is listed in Table 2 was used as a starting solution.
# [6] = Distribution ratio of cesium extracted in organic solutions of crown ethers (Table 1); assay type: physicochemical; conditions: Sr and Cs 1 g/l, nitric acid about 3.0 mol/l
# Procedure: as §1, §2, §3
# [7] = as described in US patent 4749518; with dinanylnaphthalene sulfonic acid in tributyl phosphate and kerosene; cited from earlier work
# [8] = as described in US patent 4749518; cited from earlier work
# [9] = as described in US patent 4749518; cited from earlier work; remark: listed apart in the source
# [10] = as described in US patent 4749518; cited from earlier work; remark: listed apart in the source
# [11] = as described in US patent 4749518; cited from earlier work; remark: listed apart in the source
# [12] = Radiation resistance of the extractants (gamma irradiation); assay type: physicochemical; conditions: for Distribution ratio DMe after irradiation / Distribution ratio after irradiation, % of original: dose 100.0 kGr (10^7 rad); for Usefulness of extractant after irradiation: dose 285.3 kGr
# Source text: The radiation resistance of the extractants according to the invention used for extraction radionuclides of strontium or cesium was studied. For this purpose, reaction mixtures consisting of biphase water-organic systems containing extractants based on crown ethers DCH18C6 or DB21C7 in Fluoroheptanol n3 and aqueous nitrate waste solutions, and, for comparison, reaction mixtures containing extractants based on crown ethers Crown XVI or Crown XVII with a cation exchanger—dinanylnaphthalene of sulfonic acids in a matrix solution comprising tributyl phosphate and kerosene were irradiated with gamma-rays […] in a temperature-controlled cell of stainless steel with continuous agitation by bubbling. The maximum integrated radiation dose was equal to 285.3 kGr. The extractant samples were tested and the extraction characteristics were measured before and after the irradiation to determine a decrease of the distribution ratio DMe due to the radiological destruction of extractant components.
# [13] = as described in US patent 4749518; cited from earlier work; remark: listed apart in the source
# [14] = as described in US patent 4749518; cited from earlier work; remark: listed apart in the source
# [15] = as described in US patent 4749518; cited from earlier work; remark: listed apart in the source
# [16] = as described in US patent 4749518; cited from earlier work; remark: listed apart in the source
# [17] = crown ether 0.1 mole/l in Fluoroheptanol n3
# [18] = crown ether 0.1 mole/l in Decane
compound,measurement,setting,value
"c1ccc2c(c1)OCCOCCOc1ccccc1OCCOCCO2 [DB18C6, dibenzo-18-crown-6]",Distribution ratios of sodium,[1]; nitric acid 0 mol/l,0.025
same,Distribution ratios of sodium,[1]; nitric acid 0.1 mol/l,0.04
same,Distribution ratios of sodium,[1]; nitric acid 0.5 mol/l,0.15
same,Distribution ratios of sodium,[1]; nitric acid 1.0 mol/l,0.21
same,Distribution ratios of sodium,[1]; nitric acid 3.0 mol/l,0.49
same,Distribution ratios of sodium,[1]; nitric acid 5.0 mol/l,0.67
"CC(C)(C)c1ccc2c(c1)OCCOCCOc1ccc(C(C)(C)C)cc1OCCOCCO2 [DTBDB18C6, bis(tert-butylbenzo)-18-crown-6]",Distribution ratio Strontium,[2]; [17],0.11
same,Cesium distribution ratio,"[3]; sodium nitrate 0 mole/l, crown ether about 0.1 mol/l in fluoroheptanol n3",16.0
same,Cesium distribution ratio,[3]; sodium nitrate 0.02 mole/l,9.0
same,Cesium distribution ratio,[3]; sodium nitrate 0.03 mole/l,9.1
same,Cesium distribution ratio,[3]; sodium nitrate 0.04 mole/l,9.3
same,Cesium distribution ratio,[3]; sodium nitrate 0.20 mole/l,3.0
same,Distribution ratios of sodium,[1]; nitric acid 0 mol/l,0.03
same,Distribution ratios of sodium,[1]; nitric acid 0.1 mol/l,0.04
same,Distribution ratios of sodium,[1]; nitric acid 0.5 mol/l,0.17
same,Distribution ratios of sodium,[1]; nitric acid 1.0 mol/l,0.27
same,Distribution ratios of sodium,[1]; nitric acid 3.0 mol/l,0.55
same,Distribution ratios of sodium,[1]; nitric acid 5.0 mol/l,0.64
same,Sodium concentration in the organic phase,"[4]; sodium in the aqueous phase 0.01 mol/l, crown ether about 0.05 mol/l in fluoroheptanol n3",0 mol/L
same,Sodium concentration in the organic phase,"[4]; sodium in the aqueous phase 0.1 mol/l, crown ether about 0.05 mol/l",0.035 mol/L
same,Sodium concentration in the organic phase,"[4]; sodium in the aqueous phase 0.2 mol/l, crown ether about 0.05 mol/l",0.07 mol/L
same,Sodium concentration in the organic phase,"[4]; sodium in the aqueous phase 0.4 mol/l, crown ether about 0.05 mol/l",0.14 mol/L
same,Distribution ratios of cesium,"[5]; nitric acid 0 mol/l, Fluoroheptanol n3",2.5
same,Distribution ratios of cesium,[5]; nitric acid 0.1 mol/l,7.1
same,Distribution ratios of cesium,[5]; nitric acid 0.5 mol/l,12.8
same,Distribution ratios of cesium,[5]; nitric acid 1.0 mol/l,12.3
same,Distribution ratios of cesium,[5]; nitric acid 2.0 mol/l,10.3
same,Distribution ratios of cesium,[5]; nitric acid 3.0 mol/l,8.2
same,Distribution ratios of cesium,[5]; nitric acid 4.0 mol/l,6.0
same,Distribution ratios of cesium,[5]; nitric acid 5.0 mol/l,4.0
same,Distribution ratios of cesium,[5]; nitric acid 6.0 mol/l,2.7
same,Distribution ratios of cesium,[5]; nitric acid 7.0 mol/l,1.1
same,Distribution ratios of cesium,[5]; nitric acid 8.0 mol/l,0
same,Distribution ratio Cesium,[6]; [17],15.45
di-isooctylbenzo-18-crown-6 [DIODB18C6],Distribution ratio Strontium,[2]; [18],0.05
same,Distribution ratio Strontium,[2]; [17],0.06
same,Distribution ratio Cesium,[6]; [18],0.004
same,Distribution ratio Cesium,[6]; [17],4.23
di-isooxyldicyclohexane-18-crown-6 [DIODCH18C6],Distribution ratio Strontium,[2]; [18],<0.001
same,Distribution ratio Strontium,[2]; [17],0.106
same,Distribution ratio Cesium,[6]; [18],0.004
"CCCCCCC(O)C1CCC2OCCOCCOC3CCC(C(O)CCCCCC)CC3OCCOCCOC2C1 (mixture of isomers) [Crown XVI, bis-4,4′(5′)[1-hydroxyheptyl]cyclohexo-18-crown-6]","Distribution ratios, Ba",[7],4.2
same,"Distribution ratios, Y",[8],0.02
same,"Distribution ratios, Rb",[9],0.11
same,"Distribution ratios, Cs",[10],0.03
same,"Distribution ratios, Rare-earth",[11],0.06
same,Distribution ratio before irradiation,[12]; Sr,1.98
same,Distribution ratio DMe after irradiation,[12]; Sr,1.56
same,"Distribution ratio after irradiation, % of original",[12]; Sr,78.78%
same,Loss of the distribution ratio of strontium after irradiation,[12]; dose 100 kGr,about 21%
same,Usefulness of extractant after irradiation,[12],practically useless
same,"Distribution ratios, Pd",[13],0.05
same,"Distribution ratios, Ru",[14],0.26
same,"Distribution ratios, Sr",[15],3.84
same,"Distribution ratios, Zr",[16],1.41
CC(C)(C)C1CCC2OCCOCCOC3CC(C(C)(C)C)CCC3OCCOCCOC2C1 (centres unmarked) [DTBDCH18C6],Distribution ratio Strontium,[2]; [18],<0.001
same,Distribution ratio Strontium,[2]; [17],1.91
"CCCCC(CC)C(O)c1ccc2c(c1)OCCOCCOc1cc(C(O)C(CC)CCCC)ccc1OCCOCCO2 (mixture of isomers) [Crown XVII, bis-4,4′(5′)[1-hydroxy-2-ethylhexyl]benzo-18-crown-6]","Distribution ratios, Ba",[7],0.03
same,"Distribution ratios, Y",[8],0.02
same,"Distribution ratios, Rb",[9],0.29
same,"Distribution ratios, Cs",[10],1.59
same,"Distribution ratios, Rare-earth",[11],0.17
same,Distribution ratio before irradiation,[12]; Cs,1.59
same,Distribution ratio DMe after irradiation,[12]; Cs,1.04
same,"Distribution ratio after irradiation, % of original",[12]; Cs,65.41%
same,Reduction of the distribution ratio of cesium after irradiation,[12]; dose 100 kGr,35%
same,Usefulness of extractant after irradiation,[12],practically useless
same,"Distribution ratios, Pd",[13],0.22
same,"Distribution ratios, Ru",[14],0.31
same,"Distribution ratios, Sr",[15],0.06
same,"Distribution ratios, Zr",[16],2.09
